According to US20230416287A1, “Chemical Compounds” (GLAXOSMITHKLINE INTELLECTUAL PROPERTY DEVELOPMENT LIMITED, priority 2022, published 2023):
In brackets after ≈: the same amount, converted by molar mass.

Legend:
human Nav1.8 [1] = target: T1, human Nav1.8 (Homo sapiens, UniProt Q9Y5Y9); experiment: Nav1.8 inhibitory activity, QPatch 48 HTX electrophysiology in HEK293-Nav1.8 cells; format: cell-based; design: expressed in transfected cells; host or cells: HEK293; settings: half inactivation state voltage protocol (V1/2), HEK293 cells expressing human Nav1.8, read-out: [Nav1.8] pIC50 (converted)
Procedure: Biological Assay 1: Nav1.8 Inhibitory Activity Human embryonic kidney 293 cells (HEK293) expressing human Nav1.8, human Navol and human TREK1 (HEK293-Nav1.8) were grown in T150 cell culture flasks at 37° C., 5% CO2 incubator. HEK293-Nav1.8 were passaged every 2-3 days when confluency reached 80-90% in T150 cell culture flasks.
Pharmacological assessment of compounds of the invention was performed using the QPatch 48 HTX electrophysiological platform. HEK293-Nav1.8 cells were prepared on the day of use by removing culture media, washing in DPBS, adding Accutase (2 mL to cover the surface, aspirate 1 mL then 1-2 minutes at 37° C.) followed by addition of CHO-SFM II to stop the enzyme digestion and in order to obtain a suspension of 3×10^6 cell/mL.
Compounds of the invention were prepared in an extracellular solution of the following composition: NaCl (145 mM), KCl (4 mM), CaCl2) (2 mM), MgCl (2 mM), HEPES (1 mM), Glucose (10 mM), pH 7.4 with NaOH Osmolality 300 mOsM/L. An intracellular solution of the following composition was used: CsF (115 mM), CsCl (20 mm), NaCl (5 mM), EGTA (10 mM), HEPES (10 mM), Sucrose (20 mM), pH 7.2 with CsOH Osmolality 310 mOsm/L.
Utilizing the voltage-clamp mode in the QPatch 48 HTX system a half inactivation state voltage protocol (V1/2) was used to determine pharmacological activity of compounds of the invention at Nav1.8 ion channels. A V1/2 protocol was utilized with the following voltage steps: a holding voltage of −100 mV was established followed by a 20 ms voltage step to 0 mV (P1), followed by an inactivating voltage step at −46 mV for 8 seconds, followed by a step to −100 mV for 20 ms, before a 20 ms step to 0 mV (P2), then returned to the holding voltage of −100 mV. This voltage protocol was repeated at a frequency of every 15 seconds, the current magnitude was quantified at the P2 step throughout the recording. Inhibition of the measured current amplitude with compounds of the invention was analyzed by fitting a 4-6 points dose-response curve allowing determination of the fifty percent inhibition concentration (IC50). P2 currents were normalized according to measurements made at baseline (Baseline, vehicle only), after compound (Input, at each test concentration), and after positive reference compound (FullResponse, to achieve complete block), fit to the following equation: […]
To assess current run-down over the course of the experiment vehicle-only wells were utilized and the normalized current with vehicle-only (n. IVEH) was determined. To correct the compound response for run-down, the currents were corrected according to the following formula:
[formula] • Compound inhibition was fitted to the following Hill Equation to estimate the half maximal inhibition concentration (IC50)
[formula] • where Y is the normalized run-down corrected inhibition relative to the vehicle control (equivalent to n. IRD_Correct), C the test compound concentration, IC50 the concentration of test compound to inhibit the sodium current by 50%, and h the Hill coefficient.

human Nav1.8 [2] = target: T1, human Nav1.8; experiment: Manual patch-clamp electrophysiology assay, HEK293 cells overexpressing human Nav1.8; format: cell-based; design: host or cells: HEK293; settings: manual whole-cell patch-clamp, single-pulse resting protocol, holding voltage -120 mV, step to 0 mV, room temperature
Text: The pharmacological activity of the Compounds of Example 4A and Example 5A (active parent compound of prodrug Example 4 and Example 5, respectively) was investigated by a patch-clamp electrophysiological method using a cellular system in which human Nav1.8 was overexpressed in HEK293 cells. Using this approach Nav1.8 can be activated by modulating the plasma membrane voltage and then channel function (Na^+ conduction) can be directly quantified. The ability of Nav1.8 inhibitors to block channel function in this system is a measurement of target binding and inhibition.
Cell preparation: HEK293 cells overexpressing human Nav1.8 (BIOCAT124824) were grown at 37° C., 5% C02 in medium (DMEM/F12 with 10% FBS, 2 mM GlutaMAX, 0.1 mM NEAA and […] G418, […] Hygromycin-B and […] Puromycin). […]
Voltage-clamp recording protocol: Compound effects were tested using single-pulse resting protocol in which cells were depolarized to 0 mV for 50 ms from a holding voltage of −120 mV. The peak current amplitudes were measured from the activated currents at 0 mV. […]
Nav1.8 current amplitudes measurement and normalization: Nav1.8 peak currents elicited by test pulse of 0 mV were measured and analysed by Clampfit 10.6 Software (Molecular Devices, USA). […]
Compound inhibition analysis: The compound inhibition effect was calculated using the following equation: […]

CAD kinetic solubility = format: physicochemical; settings: phosphate buffered saline (PBS), aqueous buffer, PBS pH 7.4, 1 hour equilibration at room temperature, from DMSO stock, HPLC-CAD
Procedure: Kinetic solubility was measured using Charged Aerosol Detector (CAD). The aqueous kinetic solubility at pH 7.4 was determined by measuring the concentration of solute in solution after precipitation from DMSO stock solution. The DMSO stock solution was diluted 20-fold with phosphate buffered saline (PBS) pH 7.4 and the solubility of the compound was measured after 1 hour equilibration at room temperature by HPLC-CAD.

T1 sequence (Q9Y5Y9 whole entry): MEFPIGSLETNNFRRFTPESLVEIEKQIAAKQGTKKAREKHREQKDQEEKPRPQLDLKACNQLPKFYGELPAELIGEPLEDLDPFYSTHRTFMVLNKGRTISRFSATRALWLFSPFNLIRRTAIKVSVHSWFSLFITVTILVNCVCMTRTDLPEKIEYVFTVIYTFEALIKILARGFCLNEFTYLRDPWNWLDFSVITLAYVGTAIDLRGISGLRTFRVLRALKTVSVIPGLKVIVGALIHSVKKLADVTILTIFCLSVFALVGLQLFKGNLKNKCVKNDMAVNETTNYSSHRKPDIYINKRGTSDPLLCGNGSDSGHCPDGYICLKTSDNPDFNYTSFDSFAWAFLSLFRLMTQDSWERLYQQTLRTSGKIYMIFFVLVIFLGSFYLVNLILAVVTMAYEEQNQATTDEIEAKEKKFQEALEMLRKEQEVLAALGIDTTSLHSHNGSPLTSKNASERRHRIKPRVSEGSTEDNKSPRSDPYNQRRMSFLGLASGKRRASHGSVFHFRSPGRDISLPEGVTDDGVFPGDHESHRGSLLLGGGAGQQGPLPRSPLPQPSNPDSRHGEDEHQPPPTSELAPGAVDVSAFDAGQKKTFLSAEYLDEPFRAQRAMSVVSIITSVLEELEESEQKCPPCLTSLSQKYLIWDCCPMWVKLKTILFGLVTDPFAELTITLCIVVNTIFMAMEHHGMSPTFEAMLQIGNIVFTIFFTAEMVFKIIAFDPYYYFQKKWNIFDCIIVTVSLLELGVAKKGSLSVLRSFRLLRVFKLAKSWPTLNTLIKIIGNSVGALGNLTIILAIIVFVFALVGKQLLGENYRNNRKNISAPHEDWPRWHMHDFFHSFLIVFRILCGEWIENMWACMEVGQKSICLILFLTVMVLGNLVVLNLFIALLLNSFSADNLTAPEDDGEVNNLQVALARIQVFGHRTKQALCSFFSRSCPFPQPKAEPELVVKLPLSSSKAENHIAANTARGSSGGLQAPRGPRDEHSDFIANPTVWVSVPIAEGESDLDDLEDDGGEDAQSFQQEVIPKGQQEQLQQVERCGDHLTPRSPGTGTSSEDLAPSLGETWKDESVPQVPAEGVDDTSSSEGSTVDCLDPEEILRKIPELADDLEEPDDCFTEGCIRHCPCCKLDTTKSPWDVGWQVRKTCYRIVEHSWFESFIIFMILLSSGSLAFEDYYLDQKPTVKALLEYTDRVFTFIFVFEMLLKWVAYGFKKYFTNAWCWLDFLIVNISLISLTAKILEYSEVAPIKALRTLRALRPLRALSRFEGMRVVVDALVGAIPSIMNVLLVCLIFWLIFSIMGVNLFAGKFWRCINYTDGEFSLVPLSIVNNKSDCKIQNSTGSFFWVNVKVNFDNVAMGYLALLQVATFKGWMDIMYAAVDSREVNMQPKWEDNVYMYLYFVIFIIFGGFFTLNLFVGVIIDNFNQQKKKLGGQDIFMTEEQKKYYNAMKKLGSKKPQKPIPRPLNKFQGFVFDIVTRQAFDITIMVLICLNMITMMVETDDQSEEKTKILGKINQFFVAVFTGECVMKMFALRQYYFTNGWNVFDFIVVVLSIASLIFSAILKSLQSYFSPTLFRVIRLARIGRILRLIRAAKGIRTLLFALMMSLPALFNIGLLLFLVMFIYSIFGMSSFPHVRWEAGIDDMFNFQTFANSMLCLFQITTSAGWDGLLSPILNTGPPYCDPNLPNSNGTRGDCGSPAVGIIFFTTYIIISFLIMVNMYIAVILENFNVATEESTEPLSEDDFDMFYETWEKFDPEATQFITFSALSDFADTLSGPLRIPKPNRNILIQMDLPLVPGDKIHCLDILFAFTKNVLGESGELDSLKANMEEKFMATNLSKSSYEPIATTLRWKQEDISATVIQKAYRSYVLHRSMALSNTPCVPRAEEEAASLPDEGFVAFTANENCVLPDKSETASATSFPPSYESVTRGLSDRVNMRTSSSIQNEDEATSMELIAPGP

Row | SMILES | IC50 (human Nav1.8 [1]) [nM] | IC50 (human Nav1.8 [2]) [nM] | solubility at 1 h (CAD kinetic solubility) [µg/mL]
1 | Cc1[nH]c(=O)ccc1N1CN(c2ccc(F)c(F)c2C)c2cc(Cl)c(F)cc2C1=O [Example 4A, 7-chloro-1-(3,4-difluoro-2-methylphenyl)-6-fluoro-3-(2-methyl-6-oxo-1,6-dihydropyridin-3-yl)-2,3-dihydroquinazolin-4(1H)-one] | 5.01 | 0.8 ± 0.2 | 44 (≈ 101 µM)
2 | Cc1cc(F)ccc1N1CN(c2ccc(=O)[nH]c2C)C(=O)c2cc(F)c(Cl)cc21 [Example 5A, 7-chloro-6-fluoro-1-(4-fluoro-2-methylphenyl)-3-(2-methyl-6-oxo-1,6-dihydropyridin-3-yl)-2,3-dihydroquinazolin-4(1H)-one] | 5.01 | 2.2 | 55 (≈ 132 µM)
